melting point	Compound
171 to 172 °C	CSC(Oc1cc(I)c2ncc(Br)cc2c1)C(=O)NC(C)(C)C (stereo not drawn) [12 (62A), 2-(3-bromo-8-iodo-quinolin-6-yloxy)-N-tert-butyl-2-methylsulfanyl-acetamide]
123 to 125 °C	CSC(Oc1cc(C)c(Br)c(C)c1)C(=O)NC(C)(C)C (stereo not drawn) [12 (15), 2-(4-bromo-3,5-dimethylphenoxy)-2-methylthio-N-(2-methyl-prop-2-yl)acetamide]
160 to 161 °C	CSC(Oc1cc(Cl)c2ncc(Br)cc2c1)C(=O)NC(C)(C)C (stereo not drawn) [12 (62), 2-(3-bromo-8-chloro-quinolin-6-yloxy)-N-tert-butyl-2-methylsulfanyl-acetamide]

— patent US7956188B2, “Acetamide compounds as fungicides” (Syngenta Crop Protection, Inc., priority 2004, dated 2011)
